# Test results: patent US6358885B1, “Substituted phenylheterocyclic herbicides” (Mississippi State University, priority 1992, dated 2002)
# How the values were obtained:
# cheatgrass = assay: Test B preemergence/postemergence greenhouse plant response rating 0 to 10; assay type: in vivo, Bromus secalinus; conditions: for Plant response rating, Cheatgrass: 0 to 10 scale
# Method in brief: (§1)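 Postemergence treatment of plants two to eighteen cm tall ran alongside preemergence treatment of planted seed, each using compound in a non-phytotoxic solvent.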
# blackgrass = assay: as above; assay type: in vivo, Alopecurus myosuroides; conditions: for Plant response rating, Blackgrass: POSTEMERGENCE, 0 to 10 scale
# Method in brief: as §1
# velvetleaf = assay: as above; assay type: in vivo, Abutilon theophrasti; conditions: for Plant response rating, Velvetleaf: 0 to 10 scale
# Method in brief: as §1
# lambsquarters [1] = assay: Test C preemergence/postemergence greenhouse plant response rating 0 to 100; assay type: in vivo, Chenopodium album; conditions: for Plant response rating Lambsquarters: 0 to 100 scale
# Method in brief: (§2)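 Compounds in non-phytotoxic solvent applied preemergence to sandy loam one day after planting, postemergence at the 1–4 leaf stage, or to ~2.5 cm floodwater over silt loam.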
# soybean [2] = assay: as above; assay type: in vivo, Glycine max; conditions: for Plant response rating, Soybean: 0 to 100 scale
# Method in brief: as §2
# sugar beet = assay: as above; assay type: in vivo, Beta vulgaris; conditions: for Plant response rating, Sugar beet: 0 to 100 scale
# Method in brief: as §2
# lambsquarters [3] = assay: Test B preemergence/postemergence greenhouse plant response rating 0 to 10; assay type: in vivo, Chenopodium album; conditions: for Plant response rating, Lambsquarter: 0 to 10 scale
# Method in brief: as §1
# crabgrass = assay: as above; assay type: in vivo, Digitaria spp.; conditions: for Plant response rating, Crabgrass: 0 to 10 scale
# Method in brief: as §1
# barley [4] = assay: as above; assay type: in vivo, Hordeum vulgare; conditions: for Plant response rating, Barley: 0 to 10 scale
# Method in brief: as §1
# purple nutsedge = assay: as above; assay type: in vivo, Cyperus rotundus; conditions: for Plant response rating, Nutsedge: 0 to 10 scale
# Method in brief: as §1
# pigweed = assay: Test C preemergence/postemergence greenhouse plant response rating 0 to 100; assay type: in vivo, Amaranthusretroflexus; conditions: for Plant response rating Pigweed: 0 to 100 scale
# Method in brief: as §2
# rape = assay: Test B preemergence/postemergence greenhouse plant response rating 0 to 10; assay type: in vivo, Brassica napus; conditions: for Plant response rating, Rape: 0 to 10 scale
# Method in brief: as §1
# soybean [5] = assay: as above; assay type: in vivo, Glycine max; conditions: for Plant response rating, Soybean: 0 to 10 scale
# Method in brief: as §1
# wild buckwheat = assay: Test C preemergence/postemergence greenhouse plant response rating 0 to 100; assay type: in vivo, Polygonum convolvulus; conditions: for Plant response rating, Wild buckwheat: 0 to 100 scale
# Method in brief: as §2
# giant foxtail = assay: Test B preemergence/postemergence greenhouse plant response rating 0 to 10; assay type: in vivo, Setaria faberii; conditions: for Plant response rating, Giant foxtail: 0 to 10 scale
# Method in brief: as §1
# chickweed = assay: Test C preemergence/postemergence greenhouse plant response rating 0 to 100; assay type: in vivo, Stellaria media; conditions: for Plant response rating, Chickweed: 0 to 100 scale
# Method in brief: as §2
# barley [6] = assay: as above; assay type: in vivo, Hordeum vulgare; conditions: for Plant response rating Barley Igri: 0 to 100 scale
# Method in brief: as §2
# ryegrass = assay: as above; assay type: in vivo, Lolium multiflorum; conditions: for Plant response rating Ryegrass: 0 to 100 scale
# Method in brief: as §2
compound,measurement,setting,value
C#CC(C)Oc1cc(-c2nn3c(c2Br)CCCC3)c(F)cc1Cl (stereo not shown) [Compound 66],"Plant response rating, Cheatgrass","cheatgrass; POSTEMERGENCE, Rate 50 g/ha",3
same,"Plant response rating, Cheatgrass","cheatgrass; PREEMERGENCE, Rate 50 g/ha",1
same,"Plant response rating (0 to 10 scale), Cheatgrass","cheatgrass; PREEMERGENCE, Rate 200 g/ha",6
same,"Plant response rating, Cheatgrass","cheatgrass; Rate 200 g/ha, POSTEMERGENCE",6
same,"Plant response rating, Blackgrass",blackgrass; Rate 50 g/ha,4
same,"Plant response rating (0 to 10 scale), Blackgrass","blackgrass; PREEMERGENCE, Rate 200 g/ha",7
same,"Plant response rating, Blackgrass",blackgrass; Rate 200 g/ha,6
same,"Plant response rating, Velvetleaf","velvetleaf; POSTEMERGENCE, Rate 50 g/ha",10
same,"Plant response rating, Velvetleaf","velvetleaf; PREEMERGENCE, Rate 50 g/ha",6
same,"Plant response rating (0 to 10 scale), Velvetleaf","velvetleaf; PREEMERGENCE, Rate 200 g/ha",9
same,"Plant response rating, Velvetleaf","velvetleaf; Rate 200 g/ha, POSTEMERGENCE",10
same,Plant response rating Lambsquarters,"lambsquarters [1]; POSTEMERGENCE, 62 g/ha",100
same,Plant response rating Lambsquarters,"lambsquarters [1]; POSTEMERGENCE, 250 g/ha",100
same,"Plant response rating (0 to 100), Lambsquarters","lambsquarters [1]; POSTEMERGENCE, Rate 4 g/ha",30
same,Plant response rating Lambsquarters,"lambsquarters [1]; PREEMERGENCE, 62 g/ha",100
same,Plant response rating Lambsquarters,"lambsquarters [1]; PREEMERGENCE, 250 g/ha",100
same,"Plant response rating (0 to 100), Lambsquarters","lambsquarters [1]; PREEMERGENCE, Rate 4 g/ha",0
same,"Plant response rating (0 to 100), Lambsquarters","lambsquarters [1]; Rate 16 g/ha, POSTEMERGENCE",80
same,"Plant response rating (0 to 100), Lambsquarters","lambsquarters [1]; Rate 16 g/ha, PREEMERGENCE",70
same,"Plant response rating, Soybean","soybean [2]; POSTEMERGENCE, 62 g/ha",60
same,"Plant response rating, Soybean","soybean [2]; POSTEMERGENCE, 250 g/ha",70
same,"Plant response rating (0 to 100), Soybean","soybean [2]; POSTEMERGENCE, Rate 4 g/ha",20
same,"Plant response rating, Soybean","soybean [2]; PREEMERGENCE, 250 g/ha",20
same,"Plant response rating (0 to 100), Soybean","soybean [2]; PREEMERGENCE, Rate 4 g/ha",0
same,"Plant response rating (0 to 100), Soybean","soybean [2]; Rate 16 g/ha, POSTEMERGENCE",50
same,"Plant response rating (0 to 100), Soybean","soybean [2]; Rate 16 g/ha, PREEMERGENCE",0
same,"Plant response rating, Sugar beet","sugar beet; POSTEMERGENCE, 62 g/ha",100
same,"Plant response rating, Sugar beet","sugar beet; POSTEMERGENCE, 250 g/ha",100
same,"Plant response rating (0 to 100), Sugar beet","sugar beet; POSTEMERGENCE, Rate 4 g/ha",80
same,"Plant response rating, Sugar beet","sugar beet; PREEMERGENCE, 250 g/ha",100
same,"Plant response rating (0 to 100), Sugar beet","sugar beet; PREEMERGENCE, Rate 4 g/ha",0
same,"Plant response rating (0 to 100), Sugar beet","sugar beet; Rate 16 g/ha, POSTEMERGENCE",100
same,"Plant response rating (0 to 100), Sugar beet","sugar beet; Rate 16 g/ha, PREEMERGENCE",50
same,"Plant response rating, Lambsquarter","lambsquarters [3]; POSTEMERGENCE, Rate 50 g/ha",10
same,"Plant response rating, Lambsquarter","lambsquarters [3]; PREEMERGENCE, Rate 50 g/ha",9
same,"Plant response rating (0 to 10 scale), Lambsquarter","lambsquarters [3]; PREEMERGENCE, Rate 200 g/ha",10
same,"Plant response rating, Lambsquarter","lambsquarters [3]; Rate 200 g/ha, POSTEMERGENCE",10
same,"Plant response rating, Crabgrass","crabgrass; POSTEMERGENCE, Rate 50 g/ha",4
same,"Plant response rating, Crabgrass","crabgrass; PREEMERGENCE, Rate 50 g/ha",0
same,"Plant response rating (0 to 10 scale), Crabgrass","crabgrass; PREEMERGENCE, Rate 200 g/ha",3
same,"Plant response rating, Crabgrass","crabgrass; Rate 200 g/ha, POSTEMERGENCE",5
same,"Plant response rating, Barley","barley [4]; POSTEMERGENCE, Rate 50 g/ha",5
same,"Plant response rating, Barley","barley [4]; PREEMERGENCE, Rate 50 g/ha",0
same,"Plant response rating (0 to 10 scale), Barley","barley [4]; PREEMERGENCE, Rate 200 g/ha",2
same,"Plant response rating, Barley","barley [4]; Rate 200 g/ha, POSTEMERGENCE",6
same,"Plant response rating, Nutsedge","purple nutsedge; POSTEMERGENCE, Rate 50 g/ha",2
same,"Plant response rating, Nutsedge","purple nutsedge; PREEMERGENCE, Rate 50 g/ha",0
same,"Plant response rating (0 to 10 scale), Nutsedge","purple nutsedge; PREEMERGENCE, Rate 200 g/ha",0
same,"Plant response rating, Nutsedge","purple nutsedge; Rate 200 g/ha, POSTEMERGENCE",2
same,Plant response rating Pigweed,"pigweed; POSTEMERGENCE, 62 g/ha",100
same,Plant response rating Pigweed,"pigweed; POSTEMERGENCE, 250 g/ha",100
same,"Plant response rating (0 to 100), Pigweed","pigweed; POSTEMERGENCE, Rate 4 g/ha",30
same,Plant response rating Pigweed,"pigweed; PREEMERGENCE, 62 g/ha",100
same,Plant response rating Pigweed,"pigweed; PREEMERGENCE, 250 g/ha",100
same,"Plant response rating (0 to 100), Pigweed","pigweed; PREEMERGENCE, Rate 4 g/ha",0
same,"Plant response rating (0 to 100), Pigweed","pigweed; Rate 16 g/ha, POSTEMERGENCE",100
same,"Plant response rating (0 to 100), Pigweed","pigweed; Rate 16 g/ha, PREEMERGENCE",90
same,"Plant response rating, Rape","rape; POSTEMERGENCE, Rate 50 g/ha",10
same,"Plant response rating, Rape","rape; PREEMERGENCE, Rate 50 g/ha",1
same,"Plant response rating (0 to 10 scale), Rape","rape; PREEMERGENCE, Rate 200 g/ha",5
same,"Plant response rating, Rape","rape; Rate 200 g/ha, POSTEMERGENCE",10
same,"Plant response rating, Soybean","soybean [5]; POSTEMERGENCE, Rate 50 g/ha",6
same,"Plant response rating, Soybean","soybean [5]; PREEMERGENCE, Rate 50 g/ha",0
same,"Plant response rating (0 to 10 scale), Soybean","soybean [5]; PREEMERGENCE, Rate 200 g/ha",0
same,"Plant response rating, Soybean","soybean [5]; Rate 200 g/ha, POSTEMERGENCE",8
same,"Plant response rating, Wild buckwheat","wild buckwheat; POSTEMERGENCE, 62 g/ha",100
same,"Plant response rating, Wild buckwheat","wild buckwheat; POSTEMERGENCE, 250 g/ha",100
same,"Plant response rating (0 to 100), Wild buckwheat","wild buckwheat; POSTEMERGENCE, Rate 4 g/ha",100
same,"Plant response rating, Wild buckwheat","wild buckwheat; PREEMERGENCE, 250 g/ha",100
same,"Plant response rating (0 to 100), Wild buckwheat","wild buckwheat; PREEMERGENCE, Rate 4 g/ha",0
same,"Plant response rating (0 to 100), Wild buckwheat","wild buckwheat; Rate 16 g/ha, POSTEMERGENCE",100
same,"Plant response rating (0 to 100), Wild buckwheat","wild buckwheat; Rate 16 g/ha, PREEMERGENCE",75
same,"Plant response rating, Giant foxtail","giant foxtail; POSTEMERGENCE, Rate 50 g/ha",7
same,"Plant response rating, Giant foxtail","giant foxtail; PREEMERGENCE, Rate 50 g/ha",0
same,"Plant response rating (0 to 10 scale), Giant foxtail","giant foxtail; PREEMERGENCE, Rate 200 g/ha",6
same,"Plant response rating, Giant foxtail","giant foxtail; Rate 200 g/ha, POSTEMERGENCE",6
same,"Plant response rating, Chickweed","chickweed; POSTEMERGENCE, 62 g/ha",95
same,"Plant response rating, Chickweed","chickweed; POSTEMERGENCE, 250 g/ha",100
same,"Plant response rating (0 to 100), Chickweed","chickweed; POSTEMERGENCE, Rate 4 g/ha",30
same,"Plant response rating, Chickweed","chickweed; PREEMERGENCE, 62 g/ha",50
same,"Plant response rating, Chickweed","chickweed; PREEMERGENCE, 250 g/ha",80
same,"Plant response rating (0 to 100), Chickweed","chickweed; PREEMERGENCE, Rate 4 g/ha",0
same,"Plant response rating (0 to 100), Chickweed","chickweed; Rate 16 g/ha, POSTEMERGENCE",70
same,"Plant response rating (0 to 100), Chickweed","chickweed; Rate 16 g/ha, PREEMERGENCE",0
same,Plant response rating Barley Igri,"barley [6]; POSTEMERGENCE, 62 g/ha",50
same,Plant response rating Barley Igri,"barley [6]; POSTEMERGENCE, 250 g/ha",60
same,"Plant response rating (0 to 100), Barley Igri","barley [6]; POSTEMERGENCE, Rate 4 g/ha",30
same,Plant response rating Barley Igri,"barley [6]; PREEMERGENCE, 62 g/ha",0
same,Plant response rating Barley Igri,"barley [6]; PREEMERGENCE, 250 g/ha",20
same,"Plant response rating (0 to 100), Barley Igri","barley [6]; PREEMERGENCE, Rate 4 g/ha",0
same,"Plant response rating (0 to 100), Barley Igri","barley [6]; Rate 16 g/ha, POSTEMERGENCE",30
same,"Plant response rating (0 to 100), Barley Igri","barley [6]; Rate 16 g/ha, PREEMERGENCE",0
same,Plant response rating Ryegrass,"ryegrass; POSTEMERGENCE, 62 g/ha",50
same,Plant response rating Ryegrass,"ryegrass; POSTEMERGENCE, 250 g/ha",75
same,"Plant response rating (0 to 100), Ryegrass","ryegrass; POSTEMERGENCE, Rate 4 g/ha",10
same,Plant response rating Ryegrass,"ryegrass; PREEMERGENCE, 62 g/ha",50
same,Plant response rating Ryegrass,"ryegrass; PREEMERGENCE, 250 g/ha",70
same,"Plant response rating (0 to 100), Ryegrass","ryegrass; PREEMERGENCE, Rate 4 g/ha",0
same,"Plant response rating (0 to 100), Ryegrass","ryegrass; Rate 16 g/ha, POSTEMERGENCE",30
same,"Plant response rating (0 to 100), Ryegrass","ryegrass; Rate 16 g/ha, PREEMERGENCE",20
